We go through 34 compounds from patent US6610677B2, “Pyrazole compounds useful as protein kinase inhibitors” (Vertex Pharmaceuticals Incorporated, priority 2000, dated 2003).

For orientation: Ki means the equilibrium dissociation constant of an inhibitor or competing ligand from its target. Low readings indicate a stronger hold on the target, high ones a looser hold on the target.

T1 sequence (P49841 whole entry, the tested form may be a part): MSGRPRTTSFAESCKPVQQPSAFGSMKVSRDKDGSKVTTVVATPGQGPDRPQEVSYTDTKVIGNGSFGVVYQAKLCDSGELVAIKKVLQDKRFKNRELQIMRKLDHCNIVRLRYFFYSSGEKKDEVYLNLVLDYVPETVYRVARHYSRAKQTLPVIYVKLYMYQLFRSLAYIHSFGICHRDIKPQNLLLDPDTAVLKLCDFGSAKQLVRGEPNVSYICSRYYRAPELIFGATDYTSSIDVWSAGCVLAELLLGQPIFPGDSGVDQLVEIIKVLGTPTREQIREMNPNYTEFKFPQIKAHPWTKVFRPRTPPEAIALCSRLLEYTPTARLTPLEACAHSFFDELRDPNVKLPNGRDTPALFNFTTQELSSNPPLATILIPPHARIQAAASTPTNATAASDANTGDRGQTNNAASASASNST

This assay addresses T1, GSK-3β (AA 1-420) (Homo sapiens, UniProt P49841).
T1 construct: GSK-3β (AA 1-420)
Description: Ki determination for the inhibition of GSK-3 (coupled enzyme system). The assay is classed as biochemical. As to conditions: 20 μM ATP, 300 μM peptide, 20 nM GSK-3β, 30° C. The procedure:
Compounds were screened for their ability to inhibit GSK-3β (AA 1-420) activity using a standard coupled enzyme system (Fox et al. (1998) Protein Sci. 7, 2249). Reactions were carried out in a solution containing 100 mM HEPES (pH 7.5), 10 mM MgCl2, 25 mM NaCl, 300 μM NADH, 1 mM DTT and 1.5% DMSO. Final substrate concentrations in the assay were 20 μM ATP (Sigma Chemicals, St Louis, Mo.) and 300 μM peptide (HSSPHQS(PO3H2)EDEEE, American Peptide, Sunnyvale, Calif.). Reactions were carried out at 30° C. and 20 nM GSK-3β. Final concentrations of the components of the coupled enzyme system were 2.5 mM phosphoenolpyruvate, 300 μM NADH, 30 μg/ml pyruvate kinase and 10 μg/ml lactate dehydrogenase.
An assay stock buffer solution was prepared containing all of the reagents listed above with the exception of ATP and the test compound of interest. The assay stock buffer solution (175 μl) was incubated in a 96 well plate with 5 μl of the test compound of interest at final concentrations spanning 0.002 μM to 30 μM at 30° C. for 10 min. Typically, a 12 point titration was conducted by preparing serial dilutions (from 10 mM compound stocks) with DMSO of the test compounds in daughter plates. The reaction was initiated by the addition of 20 μl of ATP (final concentration 20 μM). Rates of reaction were obtained using a Molecular Devices Spectramax plate reader (Sunnyvale, Calif.) over 10 min at 30° C. The Ki values were determined from the rate data as a function of inhibitor concentration.
On to `Fc1cc(F)c2[nH]nc(Nc3nc(-c4ccccc4C(F)(F)F)cc4ccccc34)c2c1` [Compound V-3, (5,7-Difluoro-1H-indazol-3-yl)-[3-(2-trifluoromethyl-phenyl)-isoquinolin-1-yl]-amine], for which the Ki is below 100 nM.

Compound `FC(F)(F)c1ccccc1-c1cc(Nc2n[nH]c3ccccc23)c2ccccc2n1` [Compound V-7, (1H-Indazol-3-yl)-[2-(2-trifluoromethyl-phenyl)-quinolin-4-yl]-amine] returned a Ki of 100 to 1000 nM.

`Fc1cc(F)c2[nH]nc(Nc3cc(-c4ccccc4C(F)(F)F)nc4ccccc34)c2c1` [Compound V-8, (5,7-Difluoro-1H-indazol-3-yl)-[2-(2-trifluoromethyl-phenyl)-quinolin-4-yl]-amine]: the Ki was in the range of 1000 to 20000 nM.

As to `Clc1ccccc1-c1nc2c(c(Nc3n[nH]c4ccccc34)n1)CCCCC2` [II-2, [2-(2-Chloro-phenyl)-6,7,8,9-tetrahydro-5H-cycloheptapyrimidin-4-yl]-(1H-indazol-3-yl)-amine], the Ki is below 100 nM.

Compound `Fc1ccc2[nH]nc(Nc3nc(-c4ccccc4C(F)(F)F)nc4c3CCNC4)c2c1` [II-3, (5-Fluoro-1H-indazol-3-yl)-[2-(2-trifluoromethyl-phenyl)-5,6,7,8-tetrahydro-pyrido[3,4-d]pyrimidin-4-yl]-amine] displayed a Ki below 100 nM.

`Fc1cccc2c(Nc3nc(-c4ccccc4Cl)nc4c3CCCCC4)n[nH]c12` [II-4, [2-(2-Chloro-phenyl)-6,7,8,9-tetrahydro-5H-cycloheptapyrimidin-4-yl]-(7-fluoro-1H-indazol-3-yl)-amine] gave a Ki below 100 nM.

`Fc1ccc2[nH]nc(Nc3nc(-c4ccccc4Cl)nc4c3CCCCC4)c2c1` [II-5, [2-(2-Chloro-phenyl)-6,7,8,9-tetrahydro-5H-cycloheptapyrimidin-4-yl]-(5-fluoro-1H-indazol-3-yl)-amine] gave a Ki below 100 nM.

In turn, `Fc1cc(F)c2[nH]nc(Nc3nc(-c4ccccc4Cl)nc4c3CCCCC4)c2c1` [II-6, [2-(2-Chloro-phenyl)-6,7,8,9-tetrahydro-5H-cycloheptapyrimidin-4-yl]-(5,7-difluoro-1H-indazol-3-yl)-amine] displayed a Ki below 100 nM.

Consider `Fc1cccc2c(Nc3nc(-c4ccccc4C(F)(F)F)nc4c3CCCC4)n[nH]c12` [II-7, (7-Fluoro-1H-indazol-3-yl)-[2-(2-trifluoromethyl-phenyl)-5,6,7,8-tetrahydroquinazolin-4-yl]-amine], for which the Ki is below 100 nM.

In turn, `Fc1ccc2[nH]nc(Nc3nc(-c4ccccc4C(F)(F)F)nc4c3CCCC4)c2c1` [II-8, (5-Fluoro-1H-indazol-3-yl)-[2-(2-trifluoromethyl-phenyl)-5,6,7,8-tetrahydroquinazolin-4-yl]-amine] had a Ki below 100 nM.

`Fc1cc(F)c2[nH]nc(Nc3nc(-c4ccccc4C(F)(F)F)nc4c3CCCC4)c2c1` [II-9, (5,7-Difluoro-1H-indazol-3-yl)-[2-(2-trifluoromethyl-phenyl)-5,6,7,8-tetrahydroquinazolin-4-yl]-amine] showed a Ki below 100 nM.

The compound `Fc1cc(F)c2[nH]nc(Nc3nc(-c4ccccc4C(F)(F)F)nc4c3CCCCC4)c2c1` [II-11, (5,7-difluoro-1H-indazol-3-yl)-[2-(2-trifluoromethyl-phenyl)-6,7,8,9-tetrahydro-5H-cycloheptapyrimidin-4-yl]-amine] gave a Ki below 100 nM.

As for `Fc1ccc2[nH]nc(Nc3nc(-c4ccccc4C(F)(F)F)nc4c3CN(Cc3ccccc3)CC4)c2c1` [II-12, (6-Benzyl-2-(2-trifluoromethyl-phenyl)-5,6,7,8-tetrahydro-pyrido[4,3-d]pyrimidin-4-yl)-(5-fluoro-1H-indazol-3-yl)-amine], the Ki was below 100 nM.

As to `FC(F)(F)c1ccccc1-c1nc2c(c(Nc3n[nH]c4ccccc34)n1)CCCCC2` [II-13, (1H-Indazol-3-yl)-[2-(2-trifluoromethyl-phenyl)-6,7,8,9-tetrahydro-5H-cycloheptapyrimidin-4-yl]-amine], the Ki was below 100 nM.

For `Fc1cccc2c(Nc3nc(-c4ccccc4C(F)(F)F)nc4c3CCCCC4)n[nH]c12` [II-14, (7-Fluoro-1H-indazol-3-yl)-[2-(2-trifluoromethyl-phenyl)-6,7,8,9-tetrahydro-5H-cycloheptapyrimidin-4-yl]-amine], the Ki is below 100 nM.

On to `Fc1ccc2[nH]nc(Nc3nc(-c4ccccc4C(F)(F)F)nc4c3CCCCC4)c2c1` [II-15, (5-Fluoro-1H-indazol-3-yl)-[2-(2-trifluoromethyl-phenyl)-6,7,8,9-tetrahydro-5H-cycloheptapyrimidin-4-yl]-amine], for which the Ki was below 100 nM.

As for `Fc1ccc2[nH]nc(Nc3nc(-c4ccccc4C(F)(F)F)nc4c3CNCC4)c2c1` [II-16, (5-Fluoro-1H-indazol-3-yl)-[2-(2-trifluoromethyl-phenyl)-5,6,7,8-tetrahydro-pyrido[4,3-d]pyrimidin-4-yl]-amine], the Ki was below 100 nM.

As to `FC(F)(F)c1ccccc1-c1nc2c(c(Nc3n[nH]c4ccccc34)n1)CCCC2` [II-17, (1H-indazol-3-yl)-[2-(2-trifluoromethyl-phenyl)-5,6,7,8-tetrahydroquinazolin-4-yl]-amine], the Ki was below 100 nM.

For `Fc1ccc2[nH]nc(Nc3nc(-c4ccccc4C(F)(F)F)nc4c3CCN(Cc3ccccc3)C4)c2c1` [II-18], the Ki is below 100 nM.

On to `FC(F)(F)c1ccccc1-c1nc(Nc2n[nH]c3ccccc23)cc(-c2ccccn2)n1` [II-22, (1H-Indazol-3-yl)-[6-(pyridin-2-yl)-2-(2-trifluoromethyl-phenyl)-pyrimidin-4-yl]-amine], for which the Ki was in the range of 100 to 1000 nM.

`FC(F)(F)c1ccccc1-c1nc(Nc2n[nH]c3ccccc23)cc(-c2ccccc2Cl)n1` [II-23, [6-(2-Chlorophenyl)-2-(2-trifluoromethyl-phenyl)-pyrimidin-4-yl]-(1H-indazol-3-yl)-amine] yielded a Ki below 100 nM.

As to `Cc1nc(-c2ccccc2Cl)nc(Nc2n[nH]c3ccccc23)c1C` [II-26, [2-(2-Chlorophenyl)-5,6-dimethyl-pyrimidin-4-yl]-(1H-indazol-3-yl)-amine], the Ki was below 100 nM.

As to `Cc1nc(-c2ccccc2C(F)(F)F)nc(Nc2n[nH]c3c(F)cccc23)c1C` [II-27, [5,6-Dimethyl-2-(2-trifluoromethyl-phenyl)-pyrimidin-4-yl]-(7-fluoro-1H-indazol-3-yl)-amine], the Ki is below 100 nM.

As for `Cc1nc(-c2ccccc2C(F)(F)F)nc(Nc2n[nH]c3c(F)cc(F)cc23)c1C` [II-28, (5,7-Difluoro-1H-indazol-3-yl)-[5,6-Dimethyl-2-(2-trifluoromethyl-phenyl)-pyrimidin-4-yl]-amine], the Ki was below 100 nM.

`Cc1nc(-c2ccccc2Cl)nc(Nc2n[nH]c3c(F)cc(F)cc23)c1C` [II-29, [2-(2-Chlorophenyl)-5,6-dimethyl-pyrimidin-4-yl]-(5,7-difluoro-1H-indazol-3-yl)-amine]: the Ki was below 100 nM.

On to `Cc1nc(-c2ccccc2Cl)nc(Nc2n[nH]c3c(F)cccc23)c1C` [II-30, [2-(2-Chlorophenyl)-5,6-dimethyl-pyrimidin-4-yl]-(7-fluoro-1H-indazol-3-yl)-amine], for which the Ki is below 100 nM.

As for `Cc1nc(-c2ccccc2Cl)nc(Nc2n[nH]c3ccc(F)cc23)c1C` [II-31, [2-(2-Chlorophenyl)-5,6-dimethyl-pyrimidin-4-yl]-(5-fluoro-1H-indazol-3-yl)-amine], the Ki is below 100 nM.

On to `Cc1nc(-c2ccc(Cl)cc2Cl)nc(Nc2n[nH]c3ccccc23)c1C` [II-32, [2-(2,4-Dichlorophenyl)-5,6-dimethyl-pyrimidin-4-yl]-(1H-indazol-3-yl)-amine], for which the Ki is 100 to 1000 nM.

As to `Cc1cc(Nc2nc(-c3ccccc3-c3ccccc3)nc3ccccc23)n[nH]1` [II-43, (2-Biphenyl-2-yl-quinazolin-4-yl)-(5-methyl-2H-pyrazol-3-yl)-amine], the Ki is 1000 to 20000 nM.

With `Cc1cc(Nc2nc(-c3ccccc3O)nc3ccccc23)n[nH]1` [II-44, [2-(2-Hydroxyphenyl)-quinazolin-4-yl]-(5-Methyl-2H-pyrazol-3-yl)-amine], the Ki was in the range of 100 to 1000 nM.

`CCOc1ccccc1-c1nc(Nc2cc(C)[nH]n2)c2ccccc2n1` [II-45, [2-(2-Ethoxyphenyl)-quinazolin-4-yl]-(5-Methyl-2H-pyrazol-3-yl)-amine] had a Ki of 100 to 1000 nM.

In turn, `FC(F)(F)c1ccccc1-c1nc(Nc2cc(-c3cccs3)[nH]n2)c2ccccc2n1` [II-46, [5-(Thiophen-2-yl)-2H-pyrazol-3-yl]-[2-(2-trifluoromethylphenyl)-quinazolin-4-yl]-amine] showed a Ki below 100 nM.

As to `FC(F)(F)c1ccccc1-c1nc(Nc2n[nH]cc2-c2cccs2)c2ccccc2n1` [II-47, [4-(Thiophen-2-yl)-2H-pyrazol-3-yl]-[2-(2-trifluoromethylphenyl)-quinazolin-4-yl]-amine], the Ki is 1000 to 20000 nM.

In turn, `FC(F)(F)c1ccccc1-c1nc(Nc2n[nH]cc2-c2ccccc2)c2ccccc2n1` [II-48, (4-Phenyl-2H-pyrazol-3-yl)-[2-(2-trifluoromethylphenyl)-quinazolin-4-yl]-amine] had a Ki of 1000 to 20000 nM.
